# Assay results taken from patent US20250241878A1, “TYROSINE AND RESVERATROL DERIVATIVES AS NOVEL MODULATORS OF CELLULAR SERINE ADP-RIBOSYLATION” (UNIVERSITY OF SOUTH CAROLINA, priority 2022, published 2025).
# Where two headings read alike, the source gives them in different places.
# Key:
# [1] = test system: PARP1; conditions: previously observed; cited from earlier work
# [2] = test system: association of raptor with Rab7a; assay: Raptor / Rab7a immunoprecipitation; assay type: cell-based, rat
# Text: FIG. 19C presents cis-RSV-mediated recruitment of raptor to Rab7a-coated late endosomes.
# [3] = test system: rat cortical neurons; assay: MTT cell viability assay; set-up: effect on neurotoxicity induced by etoposide (ETO) / effect on neurotoxicity induced by oxidative stress (H2O2) / effect on neurotoxicity induced by mitochondrial inhibition (MPP+) / neurotoxicity (viability): dose or concentration left out as unconfirmed; conditions: for effect on D-Tyr mediated neurotoxicity: combination with D-Tyr
# Description: Rat cortical neurons (DIV9-11) were exposed to different treatments (NMDA, ETO, H2O2, MPP+) after seeding 20,000 cells/well in 96-well plates. Cell viability was then assessed at 48 hr after the initial exposure to NMDA. 3-[4,5-dimethylthiazole-2-yl]-2,5-diphenyltetrazolium bromide (MTT) assays were used to assess change in cell viability. […] Cultured rat cortical neurons were incubated with MTT (0.5 mg/mL). In the MTT assay, after 2 hr incubation, the insoluble purple product formazan resulting from the reduction of MTT by NAD (P) H-dependent oxidoreductases present in cells with viable mitochondria was solubilized in dimethyl sulfoxide at room temperature, under agitation, and protected from light. The percentage of MTT reduced as measured by the difference between the absorbances at 570 nm read in a spectrophotometer (SpectraMax® 190R Molecular Devices, UK).
# [4] = test system: monosomes; assay: Monosome formation in cortical neurons; assay type: cell-based, rat; conditions: compound alone
# [5] = test system: AcK56-H3 and AcK16-H4; assay: Histone acetylation immunoblot (AcK56-H3, AcK16-H4); assay type: cell-based, rat; set-up: dose or concentration left out as unconfirmed
# [6] = test system: global protein synthesis; assay: Puromycin incorporation assay; assay type: cell-based, rat; conditions: compound alone
# Description: Cultured neurons (DIV 9-10) were washed once with cold 1×PBS and lysed in cell lysis buffer (20 mM Tris-HCl (pH 7.5), 150 mM NaCl, 1 mM Na2EDTA, 1 mM EGTA, 1% Triton™, 2.5 mM sodium pyrophosphate, 1 mM beta-glycerophosphate, 1 mM Na3VO4, 1 μg/ml leupeptin supplemented with protease inhibitor). The lysates were centrifuged at 10,000 RPM for 15 mins at 4° C. to separate the chromatin-bound and soluble fractions. Lysates were quantified using Bio-Rad™ Protein Assay and equal amounts of protein were loaded onto a 4 to 12% gradient gel (Invitrogen™ NuPAGE™). Protein was transferred from the gel to 0.2 μm NC membranes at 25 V for 10 mins using transfer stacks (iBlot™ 2-Invitrogen™) and blocked with 5% non-fat milk in TBST (10 mM Tris-HCl pH 8.0, 150 mM NaCl, 0.01% Tween-20) for 1 hr before application of primary antibodies. Primary and secondary antibodies were incubated overnight at 4° C. and for 1 hr at room temperature, respectively. Immobilon® ECL Ultra Western HRP Substrate (WBULS0500, Millipore™) and a luminescent image analyzer (ChemiDoc™ Imaging System, Bio-Rad™) were used to detect proteins. Quantification of western blots was done using ImageJ (Version 1.53c).
# [7] = test system: AcK56-H3; conditions: humans, 500 mg/day dosing; cited from earlier work
# [8] = test system: PARP1; assay: Auto-PARylation of PARP1 immunoblot; assay type: cell-based, rat
# [9] = test system: cortical neurons; assay: Neurite degeneration (MAP2 staining); assay type: cell-based, rat; conditions: agent alone
# Description: The neurite degeneration index was calculated. Samples were imaged using ImageXpress® Micro 4 at a magnification of 10× to capture the entire field of interest. The samples analyzed for neurite degeneration were stained using the standard immunofluorescence procedure with MAP2 (Alexa Fluor® 647) for neurites and DAPI staining for the nucleus. Neurite degeneration was quantified using 5-6 regions of interest of equal sizes from each treatment condition. The analysis of neurite degeneration was done using ImageJ. The fluorescent images for MAP2 staining were binarized, so that pixel intensity of regions corresponding to neurite staining was converted to black, and all other regions were converted to white. Healthy intact neurites show a continuous tract, whereas degenerated axons have a particulate structure due to fragmentation or beading. To detect degenerated neurites, the particle analyzer module of ImageJ was used. The percentage of the area of the small fragments or particles (size=3-10 μm^2) to the intact neurites (size >25 μm^2) with information derived from the binary images was calculated. A degeneration index (DI) was calculated as the fragmented neurite area ratio over the intact neurite area.
# [10] = higher concentrations of trans-RSV (≥25 mM)
structure (smiles),measurement,setting,value
"Oc1ccc(/C=C\c2cc(O)cc(O)c2)cc1 [cis-RSV, cis-resveratrol]",auto-PARylation of PARP1,[1],stimulate the auto-PARylation
same,association of raptor with Rab7a,[2],increases the association of raptor with Rab7a
same,effect on neurotoxicity induced by etoposide (ETO),[3],suppressed the neurotoxicity
same,effect on neurotoxicity induced by mitochondrial inhibition (MPP+),[3],suppressed the neurotoxicity
same,effect on neurotoxicity induced by oxidative stress (H2O2),[3],suppressed the neurotoxicity
same,effect on NMDA-mediated toxicity,[3]; cis-RSV,protected against NMDA-mediated toxicity in a concentration-dependent manner
same,effect on D-Tyr mediated neurotoxicity,[3],protected against D-Tyr mediated neurotoxicity
same,effect on trans-RSV-mediated neurotoxicity,[3]; combination with trans-RSV,protected against the neurotoxicity induced by trans-RSV in a dose-dependent manner
same,monosome formation,[4],stimulate the formation of monosomes
same,AcK16-H4 acetylation,[5]; cis-RSV,increased the acetylation of H4 lysine 16
"Oc1ccc(/C=C/c2cc(O)cc(O)c2)cc1 [trans-RSV, trans-resveratrol]",global protein synthesis (puromycin incorporation),[6],inhibited global protein synthesis
same,acetylation of H3 at lysine 56 (AcK56-H3),[7],inhibited the acetylation of H3 at lysine 56
same,effect on neurotoxicity induced by etoposide (ETO),[3],did not protect against these neurotoxic agents
same,effect on neurotoxicity induced by mitochondrial inhibition (MPP+),[3],did not protect against these neurotoxic agents
same,effect on neurotoxicity induced by oxidative stress (H2O2),[3],did not protect against these neurotoxic agents
same,neurotoxicity (viability),[3],by itself was neurotoxic
same,effect on D-Tyr mediated neurotoxicity,[3],protected against D-Tyr mediated neurotoxicity but not trans-RSV
same,effect on NMDA mediated neurotoxicity,[3]; [10],exacerbated the toxicity
same,effect on NMDA mediated neurotoxicity,[3]; low concentrations of trans-RSV (≤10 mM),evoked protective effects
same,auto-PARylation of PARP1,[8]; [10],inhibit the auto-PARylation of PARP1
same,auto-PARylation of PARP1,"[8]; low concentration of trans-RSV, converted to cis-RSV in solution",stimulates the auto-PARylation of PARP1
same,AcK16-H4 acetylation,[5]; trans-RSV,inhibited H3 and H4 acetylation at lysines 56 and 16
same,AcK56-H3 acetylation,[5]; trans-RSV,inhibited H3 and H4 acetylation at lysines 56 and 16
"N[C@@H](Cc1ccc(O)cc1)C(=O)O [tyrosine, L-tyrosine]",neurite degeneration,[9],did not induce neurite degeneration
same,auto-PARylation of PARP1,[1],inhibits the auto-PARylation of PARP1
